Data from patent US20250032464A1, “SOLID DISPERSION, PREPARATION METHOD THEREFOR, AND SOLID FORMULATION CONTAINING SAME” (HAIHE BIOPHARMA CO., LTD., priority 2021, published 2025).
Where two headings read alike, the source gives them in different places.

What was measured:
Caco-2 cell model = details: for The ratio of apparent permeability: human
[1] = for Equilibrium solubility, 24 h: 37° C.
P-gp = assay: in vitro; details: human, Caco-2
in vitro = details: human, Caco-2

in vivo bioavailability (after direct administration) | bioavailability (micronized compound A) [%] | permeability characteristic (Caco-2 cell model; Caco-2) | The ratio of apparent permeability (Caco-2 cell model; Caco-2, 2 μM) | The ratio of apparent permeability (Caco-2 cell model; Caco-2, 10 μM) | The ratio of apparent permeability (Caco-2 cell model; Caco-2, 50 μM) | Equilibrium solubility, 24 h ([1]; Water) [µg/mL] | solubility ([1]; media with different pH values) | Equilibrium solubility, 24 h ([1]; pH 1.2 simulated gastric fluid) [µg/mL] | Equilibrium solubility, 24 h ([1]; pH 4.5 phosphate buffer solution) [µg/mL] | Equilibrium solubility, 24 h ([1]; pH 6.8 simulated intestinal fluid) [µg/mL] | efflux ratio (P-gp) | Papp A→B (in vitro) [×10⁻⁶ cm/s] | Papp B→A (in vitro) [×10⁻⁶ cm/s] | Structure (SMILES)
less than 1% | 3.3 | high permeability characteristic | 1.21 | 2.27 | 0.64 | 0.1 | less than 1 μg/mL | 0.5 | 0.1 | 0.1 | – | – | – | Cn1cc(-c2cnc3cnn(S(=O)(=O)c4cnc5ccc(-c6cnn(C)c6)cn45)c3c2)cn1 [Compound A, 1-{(6-[(1-methyl)-4-pyrazolyl]-imidazo[1,2-a]pyridine)-3-sulfonyl}-6-[(1-methyl)-4-pyrazolyl]-1-hydro-pyrazolo[4,3-b]pyridine]
– | – | – | – | – | – | – | – | – | – | – | 165 | 0.08 ± 0.01 | 12.5 ± 0.9 | C[C@H]1O[C@@H](O[C@H]2[C@@H](O)C[C@H](O[C@H]3[C@@H](O)C[C@H](O[C@H]4CC[C@@]5(C)[C@H](CC[C@@H]6[C@@H]5C[C@@H](O)[C@]5(C)[C@@H](C7=CC(=O)OC7)CC[C@]65O)C4)O[C@@H]3C)O[C@@H]2C)C[C@H](O)[C@@H]1O [Digoxin, digoxin]
– | – | – | – | – | – | – | – | – | – | – | 1.24 | 13.7 ± 0.67 | 17 ± 0.32 | CC(C)NCC(O)COc1cccc2ccccc12 (centres unmarked) [Propranolol, propranolol]
